Assay results: patent publication US20240384232A1, “CLINICAL-GRADE THERAPEUTIC PROGENITORS GENERATED FROM TANKYRASE/PARP-INHIBITED PLURIPOTENT STEM CELL BANKS” (THE JOHNS HOPKINS UNIVERSITY, priority 2022, published 2024)
Entries after “also recorded” stand apart in the source; their conditions may differ.

Experiments:
E5C3 CB-hiPSC = experiment: Retention of TRA-1-81+SSEA4+ phenotype by FACS after removing single inhibitors from LIF-4i; format: cell-based, human; settings: for Effect of removing the inhibitor from LIF-4i on the TRA-1-81+SSEA4+ phenotype: E5C3 kept in LIF-4i for 3 passages (6 days), then inhibitor removed, feeder-free
Excerpt: FIGS. 8A-8C. […] Alternatively, E5C3 CB-hiPSC were maintained in LIF-4i for 3passages (6 days) and then cither XAV939 (E5C3-XAV939, square datapoints, dotted line) or Go6983 (E5C3 LIF-3i, triangles, dashed line) were removed from the LIF-4i formulation. […] (8B) Representative photomicrographs and flow cytometry plots of CB-hiPSC when continuously cultured in LIF-4i (LIF+4i, 6 passages), or when cultured in LIF-4i for 3 passages and then transferred into FF conditions that omitted for 3 passages the PKC inhibitor Go6983 (LIF+3i) or the tankyrase/PARP inhibitor XAV939 (without XAV939) or without XAV939 and reducing the concentration of CHIR99021 (without XAV939, CHIR 1 uM).

[1] = test system: tankyrases 1 and 2 (TANK 1/2) and AXIN-1 proteins; experiment: Western blot of tankyrase-regulated proteins in primed vs LIF-4i TIRN cultures; format: cell-based, human; settings: LIF-4i (contains XAV939) vs isogenic primed E8
Procedure: Western blots were performed of primed vs. TIRN lysates of hESC RUES02 and three independent XF/FF UTIRN CB-hiPSC lines (E32C1XF, E32C4XF, E32C6XF). ACTIN, HSP90 and total STAT3 served as internal loading controls. Western blots of XAV939-inhibited proteolysis of tankyrases 1 and 2(TANK 1/2) and AXIN-1 proteins in isogenic primed vs. TIRN conditions for TIRN-reverted RUES02 and XF/FF CB-hiPSC lines. Western blot analysis of hPSC lines in primed (E8) and naïve (LIF-4i) cultures for expression of phosphorylated (phospho.) STAT3 and ERK1/2, tankyrase 1/2 and axin1.
Cell lysates were prepared from parallel primed (E8) and TIRN (LIF-4i) cultures and 20 or 35 ug of proteins were loaded per lane.

[2] = test system: tankyrase PARylating activity and PARP1-mediated PARylation; settings: 293T cells; cited from earlier work
[3] = test system: LIF-4i UTIRN-CB-hiPSC (E32C6XF); experiment: Cell attachment during passaging onto Vitronectin-XF-coated plates; format: cell-based, human; settings: overnight exposure, 2-5 uM
Excerpt: FIGS. 9A-9C. Optimization of the transition step from E8 primed hPSC conditions to LIF-4i TIRN conditions: clonal cell passaging. (9A) Clonal efficiency during the first passage in LIF-4i TIRN conditions for hESC line (RUES01). Supplementation of LIF-3i with forskolin and purmophamine (i.e., LIF-5i) and brief adaptation of primed hPSC was previously shown to facilitate clonal transition and survival of primed cells to TIRN hPSC when subsequently cultured continuously in LIF-3i TIRN conditions on feeders. […] Therefore, the brief LIF-5i adaptation period was limited to only overnight exposure prior to passaging. […] (9A—middle, right panels) In contrast, high density culture in E8 (e.g., up to 6 days) prior to passaging in LIF-4i negatively impacted the transition into LIF-4i TIRN conditions. Photomicrographs represent primed cultures immediately prior to passaging into LIF-4i TIRN conditions. (9B) Requirement for ROCK inhibitor Y27632during passaging.
FIG. 7A outlines the transition between primed (i.e. E8) and the LIF-4i FF-TIRN-reverted system. Upon passaging into LIF-4i, hPSC immediately adopt a smaller dome-shaped morphology that expands from single cells. Photomicrographs document the morphology of the hiPSC line 6.2 during the first passages into LIF-4i (bulk passaging without colony picking) and after stable expansion for 10 consecutive passages (FIG. 7B). […]

[4] = test system: Primed E8 and LIF-4i UTIRN-hiPSC; experiment: DNA damage induction with radiomimetic, Western blot of DNA repair machinery; format: cell-based, human; settings: 4 hours treatment; TIRN-hPSC vs primed E8 hPSC
Excerpt: FIGS. 20A-20B. Induction of DNA damage in primed hPSC and XF/FF UTIRN-hPSC following exposure to the radiomimetic DNA damage inducing agent neocarzinostatin (NCS). Unlike somatic cells, naïve mouse embryonic stem cells (ESC) employ homologous recombination machinery to repair double strand breaks. However, imbalanced levels of DNAPKc in mouse ESC results into poor capacity for rejoining of radiation-induced DNA double-strand breaks in comparison to human primed ESC.
Methods. Conventional (primed) XF CB-hiPSC lines and control H9 hESC were grown in E8 medium. Isogenic TIRN-hPSC were cultured in parallel using LIF-4i. For Western blotting, whole cell lysates were prepared in RIPA buffer, 1.5 mM EDTA with protease inhibitor. Protein lysates were quantified using the BCA assay. Equal amounts of total protein lysate (e.g., 20 μg) were loaded into precast polyacrylamide gradient gels, size-separated using the Mini-PROTEAN electrophoresis system and blotted onto PDVF membranes for chemiluminescent analysis. Primed hPSC and isogenic TIRN-hPSC were assayed for endogenous DNA damage during routine culture (FIG. 20) or upon DSB induction using the radiomimetic agent neocarzinostatin (NCS). In these experiments, hPSC were treated for 4 hours with NCS before preparing lysates. […]

Cc1cnc(-c2cnc(NCCNc3ccc(C#N)cn3)nc2-c2ccc(Cl)cc2Cl)[nH]1 [CHIR99021, 6-[[2-[[4-(2,4-Dichlorophenyl)-5-(5-methyl-1H-imidazol-2-yl)-2-pyrimidinyl]amino]ethyl]amino]-3-pyridinecarbonitrile]
Rescue of XAV939 depletion by reduced CHIR99021 concentration (E5C3 CB-hiPSC; E5C3, without XAV939, CHIR99021 @ 1 uM): not rescued

COc1ccc2c(c1)c(C1=C(c3c[nH]c4ccccc34)C(=O)NC1=O)cn2CCCN(C)C [Go6983]
Effect of removing the inhibitor from LIF-4i on the TRA-1-81+SSEA4+ phenotype (E5C3 CB-hiPSC): hiPSC started differentiating after a few days without Go6983

Oc1nc(-c2ccc(C(F)(F)F)cc2)nc2c1CSCC2 [XAV939]
Effect of removing the inhibitor from LIF-4i on the TRA-1-81+SSEA4+ phenotype (E5C3 CB-hiPSC): rapid loss of TRA-1-81 and SSEA4 expression | Levels of tankyrase-PARylation-regulated proteins (AXIN1, tankyrases) [1]: tankyrase auto-PARylation and proteolysis is inhibited by XAV939; also recorded: upregulated | Effect on tankyrase and PARP1-mediated PARylation [2]: downregulate tankyrase PARylating activity, but also PARP1-mediated PARylation

C[C@@H](N)[C@H]1CC[C@H](C(=O)Nc2ccncc2)CC1 [Y-27632]
Promotion of cell attachment during passaging [3]: sufficient and required to promote efficient attachment

neocarzinostatin [NCS]
phospho-H2AX response to DSB induction [4]: elevated levels of phospho-H2AX
